Read-outs that look alike come from different tables or passages of the source.
How the values were obtained:
[1] = test system: T1, DyP1 (OFU1; recombinant DyP1 from mangrove soils); assay: dye decolorization at […] nm, Michaelis-Menten fit; assay type: biochemical; conditions: H2O2 0.25 mM co-substrate; 100 mM citrate-phosphate pH 2.6; 30 °C; read-out: Parameters / Km
T1 construct: codon-optimized synthetic cDNA from environmental cDNA capture; secreted from Pichia pastoris X33 (pPICZalphaA), C-terminal His6 tag; expected 55 kDa, about 70 kDa glycosylated on SDS-PAGE

[2] = test system: DyP1 (OFU1; recombinant DyP1 from mangrove soils); conditions: read-out: Parameters / Km; H2O2 0.25 mM co-substrate; 100 mM citrate-phosphate pH 3; 30 °C

Row | SMILES | Km [1] [µM] | Km [2] [µM]
1 | Nc1c(S(=O)(=O)O)cc(Nc2cccc(S(=O)(=O)CCOS(=O)(=O)O)c2)c2c1C(=O)c1ccccc1C2=O [RB19] | 1500 ± 878 | 
2 | CCn1c(=NN=c2sc3cc(S(=O)(=O)O)ccc3n2CC)sc2cc(S(=O)(=O)O)ccc21 [ABTS] |  | 651 ± 81

— article PMC8143184, “Exploring the Diversity of Fungal DyPs in Mangrove Soils to Produce and Characterize Novel Biocatalysts” (Journal of Fungi, 2021)
